pIC50: −log10 of the molar value. Numbered stars: 1 amine (or outer) side, 2 acyl side, 3 side chain; on linkers, the order of the positions; unused ones are H or OH. Bridge positions count the residues as written; N and C are the ends. Square brackets hold non-standard residues; d marks the D form. Peptide text beside a SMILES is read from it. Trp(βS-Me,7-OMe) = COc1cccc2c([C@H](C)[C@H](N)C(=O)O)c[nH]c12; X50 = C[C@@H](c1ccc(C(=O)O)cc1)[C@H](N[*:1])C(=O)[*:2]; Trp(7-CN) = N#Cc1cccc2c(C[C@H](N)C(=O)O)c[nH]c12; Trp(7-Cl) = N[C@@H](Cc1c[nH]c2c(Cl)cccc12)C(=O)O; X43 = O=C(O)[C@H]1CC[C@@H](C(=O)[*:2])N([*:1])C1; Ala(pyrimidin-5-yl) = N[C@@H](Cc1cncnc1)C(=O)O; Phe(3-CONH2) = NC(=O)c1cccc(C[C@H](N)C(=O)O)c1; Phe(4-CONH2) = NC(=O)c1ccc(C[C@H](N)C(=O)O)cc1; Phe(4-COOH) = N[C@@H](Cc1ccc(C(=O)O)cc1)C(=O)O; 4Pal(3S-Me) = C[C@@H](c1ccncc1)[C@H](N)C(=O)O; Trp(7-aza) = N[C@@H](Cc1c[nH]c2ncccc12)C(=O)O; Tyr(3-OMe) = COc1cc(C[C@H](N)C(=O)O)ccc1O; X1 = O=C([C@@H]1CC[C@H](N[*:1])C1)[*:2]; Pip(4-aza) = O=C(O)[C@@H]1CNCCN1; 4Pal = N[C@@H](Cc1ccncc1)C(=O)O; NMeE = CN[C@@H](CCC(=O)O)C(=O)O; dHyp = O=C(O)[C@H]1C[C@H](O)CN1; Cit = NC(=O)NCCC[C@H](N)C(=O)O; d(αMeP) = C[C@]1(C(=O)O)CCCN1; Ahp(2) = CCCCC[C@H](N)C(=O)O; NMeS = CN[C@@H](CO)C(=O)O; αMeS = C[C@](N)(CO)C(=O)O; Nle = CCCC[C@H](N)C(=O)O; Sar = CNCC(=O)O

In the experiment the target is T1, TNFα-induced NF-κB signal transduction pathway (TNFR1 signaling) in THP-1 cells (Homo sapiens, UniProt P19438).
T1 sequence (P19438 30-455): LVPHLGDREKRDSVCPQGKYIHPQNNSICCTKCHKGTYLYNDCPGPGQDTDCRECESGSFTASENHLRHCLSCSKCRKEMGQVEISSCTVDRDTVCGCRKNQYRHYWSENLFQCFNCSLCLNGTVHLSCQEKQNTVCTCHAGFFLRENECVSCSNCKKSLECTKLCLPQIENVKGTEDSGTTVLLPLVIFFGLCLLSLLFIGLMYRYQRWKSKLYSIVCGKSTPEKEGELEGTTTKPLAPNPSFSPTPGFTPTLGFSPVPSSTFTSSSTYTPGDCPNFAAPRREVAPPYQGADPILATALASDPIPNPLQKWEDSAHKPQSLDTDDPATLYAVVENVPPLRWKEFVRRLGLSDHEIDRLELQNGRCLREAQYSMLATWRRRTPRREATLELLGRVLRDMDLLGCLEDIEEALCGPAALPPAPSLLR
Briefly: THP-1 Lucia NF-κB reporter cell assay, inhibition of TNFα-induced NF-κB signaling. The class given is cell-based. As to conditions: THP-1 NF-κB Lucia reporter cells, 10 ng/mL TNFα, 16-18 h, secreted luciferase; read-out: THP-1 IC50. The method, then:
C. Procedure for THP-1 Lucia NF-κB cells
The inhibition of TNFα-induced NF-κB signal transduction pathways was evaluated in THP-1 cells. THP-1 cells harboring NF-κB-inducible Lucia™ reporter gene (InvivoGen, cat. #thp1-nfkb) designed for monitoring NF-κB signal transduction pathway was employed to assess the inhibitory effect macrocyclic peptides on TNFR1 signaling. The cells were cultured in media containing RPMI 1640, 2 mM L-glutamine, 25 mM HEPES, 10% heat-inactivated fetal bovine serum with appropriate selection antibiotics. Assays were performed in media that was devoid of selection antibiotics. For profiling, 125 nL of peptides in DMSO (10 mM) were dispensed into Falcon® 384-well Optilux white/clear flat bottom TC-treated microtest microplate (Corning, cat. #353963) using Echo® 555. […] A suspension of 1 million cells/mL was dispensed at 20 μL/well in a 384-well plate to a density of 20,000 cells/well and pre-incubated with peptides at 37° C. for 1 h. Subsequently, 5 μL of TNF containing media (recombinant human TNFα; R&D Systems USA, cat. #210-TA-005/CF) or TNF-free media (for controls) was added to the wells. The final concentration of TNFα in the assay in 10 ng/mL. After o.n. incubation at 37° C. (16-18 h), 5 μL of supernatant was aspirated and transferred to a 384-well microplate (PerkinElmer, cat. #6007680) for measurement of secreted luciferase activity with 25 μL of QUANTI-Luc™ luminescence assay reagent (InvivoGen, cat. #rep-qlc1) in each well. The luminescence was measured in EnVision® Multimode Plate Reader (PerkinElmer). Dose response curves were analyzed using a 4-parameter logistic model to calculate IC50 values, reported in Table 2, using TIBCO® Spotfire® software employing appropriate Minimum and Maximum controls.
What is called pIC50 is the negative decadic logarithm of the IC50, by convention in mol/L. As to `CCCCC[C@@H]1NC(=O)[C@@H]2CC[C@@H](C2)NC(=O)[C@H]([C@@H](C)c2c[nH]c3c(OC)cccc23)NC(=O)CN(C)C(=O)[C@H](Cc2ccc(C(N)=O)cc2)NC(=O)[C@H](Cc2ccc(C(N)=O)cc2)NC(=O)[C@](C)(CO)NC(=O)[C@H](Cc2c[nH]c3c(C#N)cccc23)NC(=O)[C@H](Cc2ccc(C(=O)O)cc2)NC(=O)[C@H](CC(N)=O)NC(=O)[C@H]2C[C@H](O)CN2C(=O)[C@H](Cc2c[nH]c3ccccc23)NC(=O)[C@H](CC(=O)O)NC(=O)[C@H]([C@@H](C)c2ccncc2)NC1=O` [SEQ ID NO. 55] (cyclo([Ahp(2)][4Pal(3S-Me)]DW[dHyp]N[Phe(4-COOH)][Trp(7-CN)][αMeS][Phe(4-CONH2)][Phe(4-CONH2)][Sar][Trp(βS-Me,7-OMe)][X1])), the pIC50 was 8.89.
Take `CCCC[C@@H]1NC(=O)[C@@H]2CC[C@@H](C2)NC(=O)[C@H]([C@@H](C)c2c[nH]c3c(OC)cccc23)NC(=O)CN(C)C(=O)[C@H](Cc2ccc(O)cc2)NC(=O)[C@H](Cc2ccc(C(=O)O)cc2)NC(=O)[C@](C)(CO)NC(=O)[C@H](Cc2c[nH]c3c(Cl)cccc23)NC(=O)[C@H](Cc2ccncc2)NC(=O)[C@H](CC(N)=O)NC(=O)[C@H](CCC(=O)O)N(C)C(=O)[C@H](Cc2c[nH]c3ccccc23)NC(=O)[C@@H]2CC[C@H](C(=O)O)CN2C(=O)[C@H](Cc2ccncc2)NC1=O` [SEQ ID NO. 120] (cyclo([4Pal][Trp(7-Cl)][αMeS][Phe(4-COOH)]Y[Sar][Trp(βS-Me,7-OMe)][X1][Nle][4Pal][X43]W[NMeE]N)): the pIC50 is 8.85.
The result for `CCCC[C@@H]1NC(=O)[C@@H]2CC[C@@H](C2)NC(=O)[C@H]([C@@H](C)c2c[nH]c3c(OC)cccc23)NC(=O)CN(C)C(=O)[C@H](Cc2ccc(C(N)=O)cc2)NC(=O)[C@H](Cc2ccc(C(N)=O)cc2)NC(=O)[C@](C)(CO)NC(=O)[C@H](Cc2c[nH]c3c(C#N)cccc23)NC(=O)[C@H](Cc2ccc(C(=O)O)cc2)NC(=O)[C@H](CC(N)=O)NC(=O)[C@H]2C[C@H](O)CN2C(=O)[C@H](Cc2c[nH]c3ncccc23)NC(=O)[C@H](CCCNC(N)=O)NC(=O)[C@H]([C@@H](C)c2ccc(C(=O)O)cc2)NC1=O` [SEQ ID NO. 118] (cyclo([Cit][Trp(7-aza)][dHyp]N[Phe(4-COOH)][Trp(7-CN)][αMeS][Phe(4-CONH2)][Phe(4-CONH2)][Sar][Trp(βS-Me,7-OMe)][X1][Nle][X50])) reads 8.55; that for `CCCC[C@@H]1NC(=O)[C@@H]2CC[C@@H](C2)NC(=O)[C@H]([C@@H](C)c2c[nH]c3c(OC)cccc23)NC(=O)CN(C)C(=O)[C@H](Cc2ccc(O)c(OC)c2)NC(=O)[C@H](Cc2ccc(C(=O)O)cc2)NC(=O)[C@](C)(CO)NC(=O)[C@H](Cc2c[nH]c3c(Cl)cccc23)NC(=O)[C@H](Cc2ccncc2)NC(=O)[C@H](CC(N)=O)NC(=O)[C@H](CCC(=O)O)N(C)C(=O)[C@H](Cc2c[nH]c3ccccc23)NC(=O)[C@@H]2CNCCN2C(=O)[C@H](Cc2ccncc2)NC1=O` [SEQ ID NO. 24] (cyclo([4Pal][Trp(7-Cl)][αMeS][Phe(4-COOH)][Tyr(3-OMe)][Sar][Trp(βS-Me,7-OMe)][X1][Nle][4Pal][Pip(4-aza)]W[NMeE]N)), 9.15; that for `CCCC[C@@H]1NC(=O)CSC[C@@H](C(N)=O)NC(=O)[C@H]([C@@H](C)c2c[nH]c3c(OC)cccc23)NC(=O)CN(C)C(=O)[C@H](Cc2ccc(O)cc2)NC(=O)[C@H](Cc2ccc(C(=O)O)cc2)NC(=O)[C@](C)(CO)NC(=O)[C@H](Cc2c[nH]c3c(Cl)cccc23)NC(=O)[C@H](Cc2ccncc2)NC(=O)[C@H](CC(N)=O)NC(=O)[C@@]2(C)CCCN2C(=O)[C@H](Cc2c[nH]c3ccccc23)NC(=O)[C@@H]2CNCCN2C(=O)[C@H](Cc2ccncc2)NC1=O` [SEQ ID NO. 76] ({CH2CO}-[Nle][4Pal][Pip(4-aza)]W[d(αMeP)]N[4Pal][Trp(7-Cl)][αMeS][Phe(4-COOH)]Y[Sar][Trp(βS-Me,7-OMe)]C-NH2; thioether N-14), 8.33.
As to `CCCC[C@@H]1NC(=O)CSC[C@@H](C(N)=O)NC(=O)[C@H]([C@@H](C)c2c[nH]c3c(OC)cccc23)NC(=O)CN(C)C(=O)[C@H](Cc2cccc(C(N)=O)c2)NC(=O)[C@H](Cc2ccc(C(=O)O)cc2)NC(=O)[C@](C)(CO)NC(=O)[C@H](Cc2c[nH]c3c(Cl)cccc23)NC(=O)[C@H](Cc2ccncc2)NC(=O)[C@H](CC(N)=O)NC(=O)[C@H](CCC(=O)O)N(C)C(=O)[C@H](Cc2c[nH]c3ccccc23)NC(=O)[C@H](CO)N(C)C(=O)[C@H](Cc2ccncc2)NC1=O` [SEQ ID NO. 270] ({CH2CO}-[Nle][4Pal][NMeS]W[NMeE]N[4Pal][Trp(7-Cl)][αMeS][Phe(4-COOH)][Phe(3-CONH2)][Sar][Trp(βS-Me,7-OMe)]C-NH2; thioether N-14), the pIC50 is 8.66.
Consider `CCCC[C@@H]1NC(=O)CSC[C@@H](C(N)=O)NC(=O)[C@H]([C@@H](C)c2c[nH]c3c(OC)cccc23)NC(=O)CN(C)C(=O)[C@H](Cc2ccc(O)cc2)NC(=O)[C@H](Cc2ccc(C(=O)O)cc2)NC(=O)[C@](C)(CO)NC(=O)[C@H](Cc2c[nH]c3c(Cl)cccc23)NC(=O)[C@H](Cc2ccncc2)NC(=O)[C@H](CC(N)=O)NC(=O)[C@H](CCC(=O)O)N(C)C(=O)[C@H](Cc2c[nH]c3ncccc23)NC(=O)[C@@H]2CNCCN2C(=O)[C@H](Cc2cncnc2)NC1=O` [SEQ ID NO. 65] ({CH2CO}-[Nle][Ala(pyrimidin-5-yl)][Pip(4-aza)][Trp(7-aza)][NMeE]N[4Pal][Trp(7-Cl)][αMeS][Phe(4-COOH)]Y[Sar][Trp(βS-Me,7-OMe)]C-NH2; thioether N-14), for which the pIC50 was 8.40.

Source of the values: patent US20240287138A1, “CYCLIC PEPTIDES FOR INHIBITING TNF RECEPTOR 1 ACTIVITY” (Merck Sharp & Dohme LLC, priority 2023, published 2024).
